Test results from PubChem BioAssay AID1963844 (Molecular Pharmacology Branch, DTP, NCI, 2024).

System: 422866-222-R5-J1-PDC complex spheroid viability
Test: Anticancer human tumor 422866-222-R5-J1-PDC patient-derived pancreatic adenocarcinoma cell line growth inhibition [POLQ]
Details: for IC50: curve of first compound; for viability, T/C: stronger effect = lower value
Protocol: Multicellular complex tumor spheroid response to Polymerase (POL) inhibitors (novobiocin, ART-558, RP6685) in combination with a variety of drugs and investigational agents in selected tumor cell lines
The POL inhibitors (novobiocin, ART-558, and RP6685) were evaluated both individually and in combination with standard of care and investigational anticancer small molecules within a complex spheroid model of solid tumors. . Complex spheroids include a stromal component modeled by human endothelial cells (HUVEC) and fibroblasts modeled by human mesenchymal stem cells (MSCs). The concentration ranges selected for each drug and investigational agent were based upon clinically achievable concentrations if the clinical Cmax of the agent was known.
Compounds. The drugs and investigational agents: novobiocin (NSC847541), ART-558 (NSC835418), RP-6685 (NSC848927), peposertib (NSC802822), ceralasertib (NSC780249), elimusertib (NSC800525), camonsertib (NSC841442), AZD-1390 (NSC803789), olaparib (NSC753686), talazoparib (NSC767125), rucaparib (NSC756644), sotorasib (NSC818433), MRTX-1133 (NSC836407), SN-38 (NSC673596), topotecan (NSC609699), epotoside (NSC141540), doxorubicin (NSC123127), gemcitabine (NSC613327), 5-fluorouracil (NSC19893), paclitaxel (NSC125973), vemurafenib (NSC761431), MSA-2 (NSC828583), SN-011 (NSC837082), adavosertib (NSC754352), prexasertib (NSC758257), carboplatin (NSC241240) and oxaliplatin (NSC266046), were obtained from the National Cancer Institute (NCI) Developmental Therapeutics Program Chemical Repository (21). The FDA-approved anticancer drug set is available from the Developmental Therapeutics Program at https://dtp.cancer.gov/organization/dscb/obtaining/. […] The stock solutions were prepared in dimethyl sulfoxide (DMSO, Sigma-Aldrich, St. Louis, MO, cat. D2650), except for the platinum compounds which were prepared in saline (Quality Biological, Gaithersburg, MD, cat. 114-055-101), at 800-fold the tested concentration and stored at -70 degrees C prior to their use. All drugs and investigational agents were tested over a range starting from a high concentration at or near the clinical Cmax and decreasing in half-log increments. If the clinical Cmax for an agent had not been determined, the highest concentration tested was 10 microM, except for SN-38, which was tested at a high concentration of 1 microM.
Cell Culture. All cells were maintained in an incubator at 37 degrees C and 5% CO2 with 95% humidity. The PDC lines were cultured according to standard operating procedures established by the NCI PDMR (https://pdmr.cancer.gov). Table 3 of the manuscript, lists the cell lines along with the number of the three cell types plated to form the mct-spheroids and media for tumor cell growth. After thawing, all PDC lines, except 997537-175-T-J1-PDC and 415267-285-R-J2-PDC, were cultured in Matrigel-coated flasks prepared with a working solution of 1X Ham's F-12 nutrient mix, without supplementation (Thermo Fisher Scientific, cat. 11765054), 100 U/mL penicillin-streptomycin (Thermo Fisher Scientific, cat. 15140122), and 2.5% Matrigel (Corning Inc., Corning, NY, cat. 354248) for the first three passages. The two PDC lines 997537-175-T-J1-PDC and 415267-285-R-J2-PDC were cultured on uncoated flasks. The 857933-349-R-J2-PDC line was cultured in 6C/Colon 1B media containing advanced DMEM/F-12 (Thermo Fisher Scientific, cat. 12634028), 10 mM HEPES (Thermo Fisher Scientific, cat. 15630080), 1X GlutaMAX supplement (Thermo Fisher Scientific, cat. 35050061), 0.1 mg/mL primocin (InvivoGen, San Diego, CA, cat. ant-pm-2), 10% defined fetal bovine serum, heat inactivated (HyClone Laboratories Inc., Logan, UT, cat. SH30070.03HI), 50% L-WRN conditioned media (ATCC, cat. CRL-3276), 1.25 mM N-Acetyl-L-cysteine (Sigma-Aldrich, cat. A9165), 10 mM nicotinamide (Sigma-Aldrich, cat. N0636), 1X B-27 supplement (Thermo Fisher Scientific, cat. 17504044), 1X N-2 supplement (Thermo Fisher Scientific, cat. […]
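Also: spheroids exposed to compounds for one week before readout.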
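For viability, T/C in this document: percent of DMSO vehicle wells luminescence so 100% = untreated viability.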

Q: With `CC[C@@]1(O)C(=O)OCc2c1cc1n(c2=O)Cc2cc3c(CN(C)C)c(O)ccc3nc2-1` + Nc1ccc(C#CCN(C(=O)Cc2ncc(C(F)(F)F)cc2C(F)(F)F)c2ccc(F)cc2)nn1 as the compound, how does the IC50 (second compound 0.0316 µM) read?
A: 26.3 nM

Q: What about the IC50 (second compound 0.1 µM) of the same compound?
A: 18.4 nM

Q: And the IC50 (second compound 0.316 µM)?
A: 19.5 nM

Q: And the IC50 (second compound 1 µM)?
A: 10.7 nM

Q: And the IC50 (second compound 3.16 µM)?
A: 19.7 nM

Q: And the IC50 (second compound 10 µM)?
A: 26.6 nM

Q: And the viability, T/C (second compound 0.0316 µM, first compound 0.000316 µM)?
A: 102%

Q: And the viability, T/C (second compound 0.0316 µM, first compound 0.001 µM)?
A: 109%

Q: And the viability, T/C (second compound 0.0316 µM, first compound 0.00316 µM)?
A: 93.3%

Q: And the viability, T/C (second compound 0.0316 µM, first compound 0.01 µM)?
A: 76%

Q: And the viability, T/C (second compound 0.0316 µM, first compound 0.0316 µM)?
A: 44%

Q: What about the viability, T/C (second compound 0.0316 µM, first compound 0.1 µM) of the same compound?
A: 34.6%

Q: What about the viability, T/C (second compound 0.1 µM, first compound 0.000316 µM) of the same compound?
A: 99.1%

Q: What about the viability, T/C (second compound 0.1 µM, first compound 0.001 µM) of the same compound?
A: 87.2%

Q: And the viability, T/C (second compound 0.1 µM, first compound 0.00316 µM)?
A: 89.6%

Q: What about the viability, T/C (second compound 0.1 µM, first compound 0.01 µM) of the same compound?
A: 63.9%

Q: And the viability, T/C (second compound 0.1 µM, first compound 0.0316 µM)?
A: 37.4%

Q: What about the viability, T/C (second compound 0.1 µM, first compound 0.1 µM) of the same compound?
A: 33.6%

Q: What about the viability, T/C (second compound 0.316 µM, first compound 0.000316 µM) of the same compound?
A: 85.6%

Q: And the viability, T/C (second compound 0.316 µM, first compound 0.001 µM)?
A: 105%

Q: What about the viability, T/C (second compound 0.316 µM, first compound 0.00316 µM) of the same compound?
A: 87%

Q: What about the viability, T/C (second compound 0.316 µM, first compound 0.01 µM) of the same compound?
A: 63.8%

Q: And the viability, T/C (second compound 0.316 µM, first compound 0.0316 µM)?
A: 40.8%

Q: And the viability, T/C (second compound 0.316 µM, first compound 0.1 µM)?
A: 34.8%

Q: And the viability, T/C (second compound 1 µM, first compound 0.000316 µM)?
A: 105%

Q: What about the viability, T/C (second compound 1 µM, first compound 0.001 µM) of the same compound?
A: 108%

Q: And the viability, T/C (second compound 1 µM, first compound 0.00316 µM)?
A: 80.5%

Q: And the viability, T/C (second compound 1 µM, first compound 0.01 µM)?
A: 53.6%

Q: And the viability, T/C (second compound 1 µM, first compound 0.0316 µM)?
A: 33.3%

Q: What about the viability, T/C (second compound 1 µM, first compound 0.1 µM) of the same compound?
A: 35.7%

Q: What about the viability, T/C (second compound 3.16 µM, first compound 0.000316 µM) of the same compound?
A: 89.2%

Q: And the viability, T/C (second compound 3.16 µM, first compound 0.001 µM)?
A: 100%

Q: And the viability, T/C (second compound 3.16 µM, first compound 0.00316 µM)?
A: 92.9%

Q: And the viability, T/C (second compound 3.16 µM, first compound 0.01 µM)?
A: 68.1%

Q: And the viability, T/C (second compound 3.16 µM, first compound 0.0316 µM)?
A: 36.9%

Q: And the viability, T/C (second compound 3.16 µM, first compound 0.1 µM)?
A: 37%

Q: And the viability, T/C (second compound 10 µM, first compound 0.000316 µM)?
A: 114%

Q: What about the viability, T/C (second compound 10 µM, first compound 0.001 µM) of the same compound?
A: 99.4%

Q: What about the viability, T/C (second compound 10 µM, first compound 0.00316 µM) of the same compound?
A: 100%

Q: And the viability, T/C (second compound 10 µM, first compound 0.01 µM)?
A: 75.8%

Q: And the viability, T/C (second compound 10 µM, first compound 0.0316 µM)?
A: 44.5%

Q: What about the viability, T/C (second compound 10 µM, first compound 0.1 µM) of the same compound?
A: 31.5%
